Details: not given
Work on `N#Cc1cccc(C(F)(F)F)c1` yielded a boiling point of 189 °C and a melting point of 14.5 °C. `CCCC1CC1` showed a boiling point of 69.1 °C. Molecule `c1ccc(OC2CCCCC2)cc1` has a boiling point of 261 °C. Molecule `Nc1cccc([N+](=O)[O-])c1N` has a melting point of 158 °C. `CC(C)=CCCC(C)CCO` (racemic) gave a boiling point of 224 °C. In the case of `C=CC(=C)F`, the boiling point is reported as 12 °C. With `CC1=C(/C=C/C(C)=C/C=C/C(C)=C/C=C/C=C(C)/C=C/C=C(C)/C=C/C2=C(C)C(=O)C(O)CC2(C)C)C(C)(C)CC(O)C1=O` (stereo unspecified) the melting point was 182 °C. Molecule `Cc1cc(C(C)(C)C)c(C)cc1O` has a boiling point of 264 °C and a melting point of 71.2 °C. `CCCCSP(=O)(SCCCC)SCCCC` showed a log10 Henry constant (atm·m³/mol) of -6.53, a log10 Koc (L/kg) of 3.7 and a log10 vapour pressure (mmHg) of -5.28. For the same molecule, the ready biodegradability was “readily biodegradable”. `CC(C)(C)OC(=O)C(F)(F)F` gave a boiling point of 83 °C. Molecule `ClC1CCCCC1` has a boiling point of 142 °C, a log10 vapour pressure (mmHg) of 0.828 and a melting point of -44 °C. For the same molecule, the ready biodegradability was “not readily biodegradable”. Molecule `CCCCC(=O)O[C@]1(C(=O)CO)CC[C@H]2[C@@H]3CCC4=CC(=O)C=C[C@]4(C)[C@H]3[C@@H](O)C[C@@]21C` has a melting point of 212 °C. With `ClC1=C(Cl)C2(Cl)C3C(Cl)C(Cl)CC3C1(Cl)C2(Cl)Cl` (stereo unspecified) the log10 Henry constant (atm·m³/mol) was -3.53, the log10 Koc (L/kg) was 4.78 and the log10 vapour pressure (mmHg) was -4.69. For the same molecule, the melting point was 106 °C and the ready biodegradability was “not readily biodegradable”. With `CN/C(=N\C#N)NCCSCc1nc[nH]c1C` the melting point was 142 °C. Work on `NCC[C@H](O)C(=O)N[C@@H]1C[C@H](N)[C@@H](O[C@H]2O[C@H](CN)[C@@H](O)[C@H](O)[C@H]2O)[C@H](O)[C@H]1O[C@H]1O[C@H](CO)[C@@H](O)[C@H](N)[C@H]1O` yielded a melting point of 204 °C. Molecule `CCN(CC)CCOC(=O)c1ccc(N)cc1Cl.Cl` has a melting point of 177 °C. `CCCCC1CCCCC1` showed a boiling point of 181 °C, a log10 vapour pressure (mmHg) of 0.119 and a melting point of -74.7 °C. With `Oc1ccccc1S` the boiling point was 217 °C and the melting point was 5.5 °C. `CN1C(CCl)Nc2cc(Cl)c(S(N)(=O)=O)cc2S1(=O)=O` (stereo unspecified) showed a melting point of 225 °C. `C#C[C@]1(O)CC[C@H]2[C@@H]3CCc4cc(OC)ccc4[C@H]3CC[C@@]21C` showed a melting point of 150 °C. In the case of `C=CCN1CC[C@]23CCCC[C@H]2[C@H]1Cc1ccc(O)cc13`, the melting point is reported as 181 °C. With `O=C(O)[C@H](O)[C@@H](O)[C@H](O)[C@H](O)C(O)CO` (stereo partly specified) the melting point was 146 °C. With `CCS(=O)(=O)c1nc2ccccn2c1S(=O)(=O)NC(=O)Nc1nc(OC)cc(OC)n1` the melting point was 201 °C. In the case of `CC(Cl)CO` (stereo unspecified), the boiling point is reported as 134 °C and the log10 vapour pressure (mmHg) is reported as 0.72. In the case of `CN1CCc2cc3c(cc2C1)OCO3`, the boiling point is reported as 304 °C and the melting point is reported as 66 °C. With `CC(C)(C)c1cc(CCC(=O)OCC(COC(=O)CCc2cc(C(C)(C)C)c(O)c(C(C)(C)C)c2)(COC(=O)CCc2cc(C(C)(C)C)c(O)c(C(C)(C)C)c2)COC(=O)CCc2cc(C(C)(C)C)c(O)c(C(C)(C)C)c2)cc(C(C)(C)C)c1O` the ready biodegradability was “not readily biodegradable”. Molecule `CNC(=S)NCc1ccccc1` has a melting point of 75 °C. For `CCOc1cc(C(C)(C)C)ccc1C1COC(c2c(F)cccc2F)=N1` (stereo unspecified), the log10 vapour pressure (mmHg) was -7.79 and the melting point was 102 °C. In the case of `Clc1ccc(-c2c(Cl)cccc2Cl)c(Cl)c1`, the log10 Henry constant (atm·m³/mol) is reported as -3.85. `CC(C)(C)CO` showed a boiling point of 114 °C, a log10 vapour pressure (mmHg) of 1.2 and a melting point of 52.5 °C. Molecule `Oc1ccccc1-c1ccccc1` has a boiling point of 286 °C, a log10 vapour pressure (mmHg) of -2.7 and a melting point of 59 °C. The ready biodegradability was “readily biodegradable”. Work on `C=CCI` yielded a boiling point of 103 °C and a melting point of -99.3 °C. In the case of `CCCCCCCCCCCCCCCCCCNC(=O)N1CC1`, the ready biodegradability is reported as “not readily biodegradable”. With `CC(=O)[C@@]1(O)CC[C@H]2[C@@H]3CCC4=CC(=O)CC[C@]4(C)[C@H]3CC[C@@]21C` the melting point was 222 °C. Molecule `CC1(C)[C@H](C(=O)O[C@H](C#N)c2cccc(Oc3ccccc3)c2)[C@@H]1/C=C(\Cl)C(F)(F)F` (single isomer, unassigned) has a melting point of 49.2 °C. With `c1ccc2cc3cc4ccccc4cc3cc2c1` the log10 Koc (L/kg) was 5.81, the log10 vapour pressure (mmHg) was -8.6 and the melting point was 357 °C. `O[C@@H]1[C@H]2CC[C@H](C2)[C@@H]1O` gave a melting point of 139 °C. `FC(F)(F)CC(F)(F)F` gave a boiling point of -1.1 °C and a melting point of -94.2 °C. `CC(C)C(=O)Cl` showed a boiling point of 92 °C and a melting point of -90 °C. In the case of `O=C1CCCCC1C1CCCCC1` (stereo unspecified), the boiling point is reported as 264 °C and the melting point is reported as -32 °C. Molecule `C[C@H](CCC(=O)O)[C@H]1CC[C@H]2[C@@H]3[C@H](O)C[C@@H]4C[C@H](O)CC[C@]4(C)[C@H]3C[C@H](O)[C@]12C` has a melting point of 198 °C. For `O=C(O)c1cc(-c2ccc(F)cc2F)ccc1O`, the melting point was 216 °C. Molecule `CO[C@H]1C=C[C@H](OC)O1` has a boiling point of 161 °C. `CC(C)CC(=O)C=Cc1ccccc1` gave a melting point of 43 °C. In the case of `N#CCCCl`, the boiling point is reported as 176 °C and the melting point is reported as -51 °C. Molecule `CC(F)(F)F` has a boiling point of -47.5 °C, a log10 vapour pressure (mmHg) of 3.98 and a melting point of -111 °C. Molecule `CCCC(O)(CC)CCC` has a boiling point of 182 °C. With `CCN1CCOCC1` the boiling point was 138 °C, the log10 vapour pressure (mmHg) was 0.702 and the melting point was -64 °C. For the same molecule, the ready biodegradability was “not readily biodegradable”. Work on `Clc1c(Cl)c(Cl)c2c(oc3c(Cl)c(Cl)c(Cl)c(Cl)c32)c1Cl` yielded a log10 Koa of 11.9, a log10 vapour pressure (mmHg) of -11.4 and a melting point of 258 °C. `Clc1ccc(Cl)c(-c2c(Cl)ccc(Cl)c2Cl)c1Cl` gave a log10 Henry constant (atm·m³/mol) of -4.06 and a log10 Koc (L/kg) of 6.01. Work on `CCCCCCCCCCCCN1CC(C(=O)OC)CC1=O` (stereo unspecified) yielded a melting point of 27.5 °C. `CC(=O)OCCN(C)C` gave a boiling point of 152 °C. In the case of `CC(=O)NC(=O)COC(=O)c1ccccc1`, the melting point is reported as 104 °C. Molecule `C=CCNS(=O)(=O)c1cc(S(N)(=O)=O)c(Cl)cc1/N=C/C=C(/C)O` has a melting point of 206 °C. `CCCCC=C(C)C` showed a boiling point of 123 °C and a log10 vapour pressure (mmHg) of 1.25. `CCc1cccc(-c2ccccc2)c1` gave a boiling point of 284 °C and a melting point of -27.5 °C. Molecule `CC1(C)CCCCC1` has a boiling point of 120 °C, a log10 vapour pressure (mmHg) of 1.36 and a melting point of -33.3 °C. For the same molecule, the ready biodegradability was “not readily biodegradable”. With `CCCC(=NOCC)C1=C(O)CC(C2CCCSC2)CC1=O` (stereo unspecified) the log10 vapour pressure (mmHg) was -7.12 and the melting point was 41 °C. For `CCN(CC)c1ccc(N)cc1`, the boiling point was 261 °C. `Cc1cc(C(C)(C)c2ccc(O)c(C)c2)ccc1O` gave a melting point of 139 °C. Work on `Cc1ccc(C(=O)Cl)cc1` yielded a boiling point of 226 °C and a melting point of -3 °C. Molecule `CCCCCCC=O` has a boiling point of 153 °C, a log10 Henry constant (atm·m³/mol) of -3.57 and a log10 vapour pressure (mmHg) of 0.546. It also gave a melting point of -43.3 °C. With `c1ccc2cc3cc4cc5ccccc5cc4cc3cc2c1` the melting point was 257 °C and the ready biodegradability was “not readily biodegradable”. `FC(Cl)(Cl)c1ccccc1` showed a boiling point of 179 °C and a melting point of -26.8 °C. In the case of `CCOC(=O)C(C)=O`, the boiling point is reported as 155 °C and the melting point is reported as -50 °C. For `CC(C)[C@@H]1CCCCC1=O`, the melting point was 72.5 °C. `CC1(C)[C@H](C(=O)O[C@H](C#N)c2cccc(Oc3ccccc3)c2)[C@@H]1/C=C\C(=O)OC(C(F)(F)F)C(F)(F)F` gave a log10 vapour pressure (mmHg) of -9.48 and a melting point of 81.5 °C. With `CCCCC(=O)C(C)C` the boiling point was 158 °C. `Brc1ccoc1` gave a boiling point of 103 °C. Molecule `CC(C(N)=O)n1nc2ccccc2n1` (stereo unspecified) has a melting point of 170 °C. `C[C@@H]1CCCC[C@@H]1C` (racemic) showed a melting point of -70 °C. Work on `O=C=Nc1ccccc1Cl` yielded a boiling point of 200 °C and a melting point of 30.5 °C. In the case of `CCCC(=O)c1ccccc1O`, the melting point is reported as 10 °C. Work on `Nc1ccc2cc(S(=O)(=O)O)cc(S(=O)(=O)O)c2c1` yielded a melting point of 274 °C. In the case of `Cc1nn(C)c(OCC(=O)c2ccccc2)c1C(=O)c1ccc(Cl)cc1Cl`, the log10 vapour pressure (mmHg) is reported as -6.44 and the melting point is reported as 112 °C. Work on `Cc1cccc(CBr)c1` yielded a boiling point of 212 °C. In the case of `CCOC(=O)NCc1ccccc1`, the boiling point is reported as 230 °C and the melting point is reported as 49 °C. `N#CC(C#N)=C1c2cc([N+](=O)[O-])ccc2-c2c1cc([N+](=O)[O-])cc2[N+](=O)[O-]` showed a melting point of 267 °C. In the case of `c1ccc2c(c1)cc1c3ccccc3c3cccc4ccc2c1c43`, the melting point is reported as 234 °C. `COC(=O)/C(C)=C/OP(=S)(OC)OC` showed a log10 vapour pressure (mmHg) of -2.92. For `O=C(C=Cc1ccccc1)OCC=Cc1ccccc1`, the melting point was 44 °C. For `CCCCSP(SCCCC)SCCCC`, the melting point was 100 °C. Molecule `CC(C)[C@H](C(=O)OC(C#N)c1cccc(Oc2ccccc2)c1)c1ccc(OC(F)F)cc1` (stereo partly specified) has a log10 Koc (L/kg) of 5 and a log10 vapour pressure (mmHg) of -8.06. Molecule `Oc1ccc2ccccc2c1/N=N/c1ccc(/N=N\c2ccccc2)cc1` has a melting point of 195 °C. In the case of `O=[N+]([O-])c1cccc(-c2ccccc2)c1`, the melting point is reported as 62 °C. Work on `Oc1ccc(Oc2ccccc2)cc1` yielded a melting point of 84 °C. Molecule `[O-][n+]1ccccc1` has a melting point of 65.5 °C. With `Oc1c2ccccc2cc2ccccc12` the melting point was 152 °C. With `CCC(S)CC` the boiling point was 105 °C and the melting point was -111 °C. `O=S(=O)(O)C(F)(F)C(F)(F)C(F)(F)C(F)(F)C(F)(F)C(F)(F)F` showed a boiling point of 238 °C. For `COc1cc(C(=O)O)cc(OC)c1OC`, the melting point was 172 °C. Molecule `CCC/C=C/CCCCCC` has a boiling point of 193 °C and a melting point of -80.3 °C. For `Nc1c(Cl)cc([N+](=O)[O-])cc1[N+](=O)[O-]`, the ready biodegradability was “not readily biodegradable”.

Same assay, conditions: fish
`ClC1CCCCC1` gave a log10 BCF of 2.34 and a log10 biotransformation half-life (days) of 0.41. Work on `ClC1=C(Cl)C2(Cl)C3C(Cl)C(Cl)CC3C1(Cl)C2(Cl)Cl` (stereo unspecified) yielded a log10 BCF of 4.35 and a log10 biotransformation half-life (days) of 2.26. In the case of `Clc1ccc(-c2c(Cl)cccc2Cl)c(Cl)c1`, the log10 biotransformation half-life (days) is reported as 2.47. Work on `Clc1ccc2c(c1)Oc1ccc(Cl)cc1O2` yielded a log10 BCF of 2.54 and a log10 biotransformation half-life (days) of 0.23. `Clc1c(Cl)c(Cl)c2c(oc3c(Cl)c(Cl)c(Cl)c(Cl)c32)c1Cl` showed a log10 BCF of 2.89 and a log10 biotransformation half-life (days) of 1.22. `Clc1ccc(Cl)c(-c2c(Cl)ccc(Cl)c2Cl)c1Cl` showed a log10 biotransformation half-life (days) of 2.34.

Reference: the OPERA property sets (Mansouri et al. 2018)
